Experimental data: patent publication US9604975B2, “Indolyl-pyridone derivatives having checkpoint kinase 1 inhibitory activity” (Vernalis (R&D) Ltd., priority 2009, dated 2017)
pIC50: −log10 of the molar value.

target: T1, CHK1 (Homo sapiens, UniProt O14757); experiment: CHK1 Enzyme Assay (phosphorylation of Chktide peptide, 33P-ATP filter assay); assay type: biochemical; conditions: 12.5 nM His-CHK1, 0.01 mM ATP, 40 minutes at 30° C.; read-out: CHK1 Enzyme Activity (IC50 range)
T1 construct: His; purchased Invitrogen
T1 sequence (O14757 1-476): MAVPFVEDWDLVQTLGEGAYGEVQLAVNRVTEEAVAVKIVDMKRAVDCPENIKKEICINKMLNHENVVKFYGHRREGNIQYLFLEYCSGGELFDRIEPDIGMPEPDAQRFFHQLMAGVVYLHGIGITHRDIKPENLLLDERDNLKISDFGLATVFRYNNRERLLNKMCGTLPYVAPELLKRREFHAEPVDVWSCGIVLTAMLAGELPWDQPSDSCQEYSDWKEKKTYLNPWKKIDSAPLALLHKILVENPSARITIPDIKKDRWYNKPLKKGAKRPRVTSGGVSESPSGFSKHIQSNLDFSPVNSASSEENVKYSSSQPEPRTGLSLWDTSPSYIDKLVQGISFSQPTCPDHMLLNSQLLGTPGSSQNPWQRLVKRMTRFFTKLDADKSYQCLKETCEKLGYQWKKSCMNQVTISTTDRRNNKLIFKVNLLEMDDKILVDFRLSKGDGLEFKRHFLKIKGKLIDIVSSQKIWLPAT
Method in brief: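 His-CHK1 (12.5 nM) phosphorylating 14.8 μM Chktide with 0.01 mM ATP plus 33P-γ-ATP, in 50 mM Hepes-NaOH pH 7.5 with 0.1 mg/mL BSA. Incubated with inhibitor for 40 min at 30 °C. Stopped with phosphoric acid; phosphopeptide captured on filter and counted by scintillation.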

| SMILES | pIC50 |
| --- | --- |
| CN1CCN(Cc2ccc3[nH]c(-c4cc(C(=O)Nc5cnn(Cc6ccc(F)c(F)c6)c5)c[nH]c4=O)cc3c2)CC1 [Example 104, 5-[5-(4-Methyl-piperazin-1-ylmethyl)-1H-indol-2-yl]-6-oxo-1,6-dihydro-pyridine-3-carboxylic acid [1-(3,4-difluoro-benzyl)-1H-pyrazol-4-yl]-amide] | > 7.00 |
| O=C(Nc1cnn(Cc2ccc(F)c(F)c2)c1)c1c[nH]c(=O)c(-c2cc3cc(CN4CCN(CCO)CC4)ccc3[nH]2)c1 [Example 105, 5-{5-[4-(2-Hydroxyethyl)-piperazin-1-ylmethyl]-1H-indol-2yl}-6-oxo-1,6-dihydropyridine-3-carboxylic acid[1-(3,4-difluorobenzyl)-1H-pyrazol-4-yl]-amide] | > 7.00 |
| CN(C)Cc1cccc2[nH]c(-c3cc(NC(=O)c4cnn(Cc5ccccc5)c4)c[nH]c3=O)cc12 [Example 106, 1-Benzyl-1H-pyrazole-4-carboxylic acid [5-(4-dimethylaminomethyl-1H-indol-2-yl)-6-oxo-1,6-dihydro-pyridin-3-yl]-amide] | > 7.00 |
| CN1CCN(Cc2cccc3[nH]c(-c4cc(NC(=O)c5cnn(Cc6ccccc6)c5)c[nH]c4=O)cc23)CC1 [Example 107, 1-Benzyl-1H-pyrazole-4-carboxylic acid {5-[4-(4-methyl-piperazin-1-ylmethyl)-1H-indol-2-yl]-6-oxo-1,6-dihydro-pyridin-3-yl}-amide] | > 7.00 |
| O=C(Nc1c[nH]c(=O)c(-c2cc3c(CN4CCCCC4)cccc3[nH]2)c1)c1cnn(Cc2ccccc2)c1 [Example 108, 1-Benzyl-1H-pyrazole-4-carboxylic acid [6-oxo-5-(4-piperidin-1-ylmethyl-1H-indol-2-yl)-1,6-dihydro-pyridin-3-yl]-amide] | > 7.00 |
| C[C@@H]1CN(Cc2cccc3[nH]c(-c4cc(NC(=O)c5cnn(Cc6ccccc6)c5)c[nH]c4=O)cc23)C[C@H](C)O1 [Example 109, 1-Benzyl-1H-pyrazole-4-carboxylic acid {5-[4-(cis-2,6-dimethyl-morpholin-4-ylmethyl)-1H-indol-2-yl]-6-oxo-1,6-dihydro-pyridin-3-yl}-amide] | > 7.00 |
| O=C(Nc1cnn(Cc2ccc(F)nc2)c1)c1c[nH]c(=O)c(-c2cc3ccccc3[nH]2)c1 [Example 110, 5-(1H-Indol-2-yl)-6-oxo-1,6-dihydro-pyridine-3-carboxylic acid [1-(6-fluoro-pyridin-3-ylmethyl)-1H-pyrazol-4-yl]-amide] | 6.30 to 7.00 |
| O=C(Nc1c[nH]c(=O)c(-c2cc3ccccc3[nH]2)c1)c1cnn(Cc2ccc(F)nc2)c1 [Example 111, 1-(6-Fluoro-pyridin-3-ylmethyl)-1H-pyrazole-4-carboxylic acid [5-(1H-indol-2-yl)-6-oxo-1,6-dihydro-pyridin-3-yl]-amide] | > 7.00 |
| Cc1ccc(Cn2cc(C(=O)Nc3c[nH]c(=O)c(-c4cc5cc(N6CCN(C)CC6)ccc5[nH]4)c3)cn2)cc1 [Example 112, 1-(4-Methyl-benzyl)-1H-pyrazole-4-carboxylic acid {5-[5-(4-methyl-piperazin-1-yl)-1H-indol-2-yl]-6-oxo-1,6-dihydro-pyridin-3-yl}-amide] | > 7.00 |
| CN1CCN(c2ccc3[nH]c(-c4cc(NC(=O)c5cnn(Cc6ccccc6)c5)c[nH]c4=O)cc3c2)CC1 [Example 113, 1-Benzyl-1H-pyrazole-4-carboxylic acid {5-[5-(4-methyl-piperazin-1-yl)-1H-indol-2-yl]-6-oxo-1,6-dihydro-pyridin-3-yl}-amide] | > 7.00 |
| CN1CCN(c2ccc3[nH]c(-c4cc(NC(=O)c5cnn(Cc6ccc(F)cc6)c5)c[nH]c4=O)cc3c2)CC1 [Example 114, 1-(4-Fluoro-benzyl)-1H-pyrazole-4-carboxylic acid {5-[5-(4-methyl-piperazin-1-yl)-1H-indol-2-yl]-6-oxo-1,6-dihydro-pyridin-3-yl}-amide] | > 7.00 |
| Cc1ccc(Cn2cc(C(=O)Nc3c[nH]c(=O)c(-c4cc5cc(OCCN6CCCCC6)ccc5[nH]4)c3)cn2)cc1 [Example 115, 1-(4-Methyl-benzyl)-1H-pyrazole-4-carboxylic acid {6-oxo-5-[5-(2-piperidin-1-yl-ethoxy)-1H-indol-2-yl]-1,6-dihydro-pyridin-3-yl}-amide] | > 7.00 |
| Cc1ccc(Cn2cc(C(=O)Nc3c[nH]c(=O)c(-c4cc5cc(OCCN6CCCC(F)C6)ccc5[nH]4)c3)cn2)cc1 (centres unmarked) [Example 116, 1-(4-Methyl-benzyl)-1H-pyrazole-4-carboxylic acid (5-{5-[2-(3-fluoro-piperidin-1-yl)-ethoxy]-1H-indol-2-yl}-6-oxo-1,6-dihydro-pyridin-3-yl)-amide] | > 7.00 |
| Cc1ccc(Cn2cc(C(=O)Nc3c[nH]c(=O)c(-c4cc5cc(OCCCN6CCOCC6)ccc5[nH]4)c3)cn2)cc1 [Example 117, 1-(4-Methyl-benzyl)-1H-pyrazole-4-carboxylic acid {5-[5-(3-morpholin-4-yl-propoxy)-1H-indol-2-yl]-6-oxo-1,6-dihydro-pyridin-3-yl}-amide] | > 7.00 |
| Cc1ccc(Cn2cc(C(=O)Nc3c[nH]c(=O)c(-c4cc5cc(OCCN6CCOCC6)ccc5[nH]4)c3)cn2)cc1 [Example 118, 1-(4-Methyl-benzyl)-1H-pyrazole-4-carboxylic acid {5-[5-(2-morpholin-4-yl-ethoxy)-1H-indol-2-yl]-6-oxo-1,6-dihydro-pyridin-3-yl}-amide] | > 7.00 |
| Cc1ccc(Cn2cc(C(=O)Nc3c[nH]c(=O)c(-c4cc5cc(OCCCN6CCCCC6)ccc5[nH]4)c3)cn2)cc1 [Example 119, 1-(4-Methyl-benzyl)-1H-pyrazole-4-carboxylic acid {6-oxo-5-[5-(3-piperidin-1-yl-propoxy)-1H-indol-2-yl]-1,6-dihydro-pyridin-3-yl}-amide] | > 7.00 |
| O=C(Nc1c[nH]c(=O)c(-c2cc3cc(OCCN4CCCCC4)ccc3[nH]2)c1)c1cnn(Cc2ccc(C(F)(F)F)cc2)c1 [Example 121, 1-(4-Trifluoromethyl-benzyl)-1H-pyrazole-4-carboxylic acid {6-oxo-5-[5-(2-piperidin-1-yl-ethoxy)-1H-indol-2-yl]-1,6-dihydro-pyridin-3-yl}-amide] | > 7.00 |

More lines, now with the values ahead:

| pIC50 | SMILES |
| --- | --- |
| > 7.00 | Cc1ccc(Cn2cc(C(=O)Nc3c[nH]c(=O)c(-c4cc5cc(OCCCN(C)C)ccc5[nH]4)c3)cn2)cc1 [Example 122, 1-(4-Methyl-benzyl)-1H-pyrazole-4-carboxylic acid {5-[5-(3-dimethylamino-propoxy)-1H-indol-2-yl]-6-oxo-1,6-dihydro-pyridin-3-yl}-amide] |
| > 7.00 | CCN(CC)CCCOc1ccc2[nH]c(-c3cc(NC(=O)c4cnn(Cc5ccc(C)cc5)c4)c[nH]c3=O)cc2c1 [Example 123, 1-(4-Methyl-benzyl)-1H-pyrazole-4-carboxylic acid {5-[5-(3-diethylamino-propoxy)-1H-indol-2-yl]-6-oxo-1,6-dihydro-pyridin-3-yl}-amide] |
| > 7.00 | Cc1ccc(Cn2cc(C(=O)Nc3c[nH]c(=O)c(-c4cc5cc(OCCCN6CCN(C)CC6)ccc5[nH]4)c3)cn2)cc1 [Example 124] |
| > 7.00 | CCN(CC)CCOc1ccc2[nH]c(-c3cc(NC(=O)c4cnn(Cc5ccc(C)cc5)c4)c[nH]c3=O)cc2c1 [Example 125, 1-(4-Methyl-benzyl)-1H-pyrazole-4-carboxylic acid {5-[5-(2-diethylamino-ethoxy)-1H-indol-2-yl]-6-oxo-1,6-dihydro-pyridin-3-yl}-amide] |
| > 7.00 | Cc1ccc(Cn2cc(C(=O)Nc3c[nH]c(=O)c(-c4cc5cc(OCCN6CCN(C)CC6)ccc5[nH]4)c3)cn2)cc1 [Example 126, 1-(4-Methyl-benzyl)-1H-pyrazole-4-carboxylic acid (5-{5-[2-(4-methyl-piperazin-1-yl)-ethoxy]-1H-indol-2-yl}-6-oxo-1,6-dihydro-pyridin-3-yl)-amide] |
| > 7.00 | CCc1cccc(Cn2cc(C(=O)Nc3c[nH]c(=O)c(-c4cc5cc(OCCCN6CCN(C)CC6)ccc5[nH]4)c3)cn2)c1 [Example 127, 1-(3-Ethyl-benzyl)-1H-pyrazole-4-carboxylic acid (5-{5-[3-(4-methyl-piperazin-1-yl)-propoxy]-1H-indol-2-yl}-6-oxo-1,6-dihydro-pyridin-3-yl)-amide] |
| > 7.00 | CCc1cccc(Cn2cc(C(=O)Nc3c[nH]c(=O)c(-c4cc5cc(OCCN(C)C)ccc5[nH]4)c3)cn2)c1 [Example 128, 1-(3-Ethyl-benzyl)-1H-pyrazole-4-carboxylic acid {5-[5-(2-dimethylamino-ethoxy)-1H-indol-2-yl]-6-oxo-1,6-dihydro-pyridin-3-yl}-amide] |
| > 7.00 | CCc1cccc(Cn2cc(C(=O)Nc3c[nH]c(=O)c(-c4cc5cc(OCCCN(C)C)ccc5[nH]4)c3)cn2)c1 [Example 129, 1-(3-Ethyl-benzyl)-1H-pyrazole-4-carboxylic acid {5-[5-(3-dimethylamino-propoxy)-1H-indol-2-yl]-6-oxo-1,6-dihydro-pyridin-3-yl}-amide] |
| > 7.00 | CCc1cccc(Cn2cc(C(=O)Nc3c[nH]c(=O)c(-c4cc5cc(OCCN(CC)CC)ccc5[nH]4)c3)cn2)c1 [Example 130, 1-(3-Ethyl-benzyl)-1H-pyrazole-4-carboxylic acid {5-[5-(2-diethylamino-ethoxy)-1H-indol-2-yl]-6-oxo-1,6-dihydro-pyridin-3-yl}-amide] |
